The values that follow are results of earlier work, collected in patent publication US20130327676A1, “Packaging of Solid Pharmaceutical Preparations Containing the Active Substance Glyceryl Trinitrate” (G. Pohl-Boskamp GmbH & Co. KG, priority 2011, published 2013).

For data set [1] the following is noted: at 20° C.

As to `O=[N+]([O-])OCC(CO[N+](=O)[O-])O[N+](=O)[O-]` [GTN, glyceryl trinitrate], the vapor pressure in data set [1] was 0.25 Pa. For the same molecule, the “active substance originally contained in the tablets found in the polyethylene” value (polyethylene sealing layer of the packaging material) is listed as 84%. Also, the “active substance remaining in tablets following storage, of originally contained” value (tablets packaged individually in aluminum foil films with polyethylene sealing layer) is “less than 10%”.

In general, vapor pressure refers to the equilibrium pressure above the liquid or solid.
